Values of other authors as cited in patent publication US11878081B1, “Pharmaceutical formulations of tafamidis” (TaP Pharmaceuticals, AG, priority 2022, dated 2024).
Like-named read-outs stand apart in the source and are kept apart here.

Assays:
[1] = as stated by the '116 publication
[2] = 20 mg in 3.0 mL, equilibration 1 h, UHPLC
[3] = capsule formulation of Table B/C, 61 mg, pH 6.8 PBS 900 ml, paddle 50 RPM, 37° C.

| SMILES | stability [1] | concentration of tafamidis in saturated solution (solubility) ([2]; FaSSIF) | concentration of tafamidis in saturated solution (solubility) ([2]; FeSSIF) | concentration of tafamidis in saturated solution (solubility) ([2]; SGF) | Cumulative drug release ([3]; 0 min) | Cumulative drug release ([3]; 5 min) | Cumulative drug release ([3]; 10 min) | Cumulative drug release ([3]; 15 min) | Cumulative drug release ([3]; 20 min) | Cumulative drug release ([3]; 30 min) | Cumulative drug release ([3]; 45 min) | Cumulative drug release ([3]; 60 min) | solubility [1] | stability ([1]; listed as tafamidis form 1) |
| --- | --- | --- | --- | --- | --- | --- | --- | --- | --- | --- | --- | --- | --- | --- |
| O=C(O)c1ccc2nc(-c3cc(Cl)cc(Cl)c3)oc2c1 [form 4, 2-(3,5-dichlorophenyl)-1,3-benzoxazole-6-carboxylic acid] | unstable |  |  |  |  |  |  |  |  |  |  |  |  |  |
| O=C(O)c1ccc2nc(-c3cc(Cl)cc(Cl)c3)oc2c1 [‘441 patent's tafamidis crystal form 1, 2-(3,5-dichlorophenyl)-1,3-benzoxazole-6-carboxylic acid] |  | 9.0 µg/mL | 0.6 µg/mL | 1.5 µg/mL | 0.0% | 14.0% | 27.3% | 29.1% | 28.1% | 27.6% | 26.8% | 21.8% | low solubility | more stable than forms 2, 4, and 6 |
